# Activity calls are given as the source filed them. Rule for the calls: active = viability on the fitted dose curve at most 10% of control; inactive = the rest.
# Tested on: SW 1271 complex tumor spheroid viability
# Test: Anticancer human tumor SW 1271 cell line growth inhibition;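 for IC50: spheroids exposed to agents for seven days before readout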;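 for viability, T/C: spheroids exposed to agents for seven days before readout; percent of DMSO vehicle control luminescence so 100% = vehicle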
# Details: for IC50: curve of first compound; for viability, T/C: stronger effect = lower value
# Outline: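 Complex spheroids of malignant cells with endothelial cells and mesenchymal stem cells; agents alone or combined, from near clinical Cmax (or 10 microM if unknown) down in half-log steps, 0.25% DMSO final.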
# [1] = second compound 1 µM, first compound 0.00949 µM
# [2] = second compound 1 µM, first compound 0.03 µM
# [3] = second compound 1 µM, first compound 0.0949 µM
# [4] = second compound 1 µM, first compound 0.3 µM
# [5] = second compound 1 µM, first compound 0.949 µM
# [6] = second compound 1 µM, first compound 3 µM
# [7] = second compound 3.16 µM, first compound 0.00949 µM
# [8] = second compound 3.16 µM, first compound 0.03 µM
# [9] = second compound 3.16 µM, first compound 0.0949 µM
# [10] = second compound 3.16 µM, first compound 0.3 µM
# [11] = second compound 3.16 µM, first compound 0.949 µM
# [12] = second compound 3.16 µM, first compound 3 µM
# [13] = second compound 10 µM, first compound 0.00949 µM
# [14] = second compound 10 µM, first compound 0.03 µM
# [15] = second compound 10 µM, first compound 0.0949 µM
# [16] = second compound 10 µM, first compound 0.3 µM
# [17] = second compound 10 µM, first compound 0.949 µM
# [18] = second compound 10 µM, first compound 3 µM
# [19] = second compound 31.6 µM, first compound 0.00949 µM
# [20] = second compound 31.6 µM, first compound 0.03 µM
# [21] = second compound 31.6 µM, first compound 0.0949 µM
# [22] = second compound 31.6 µM, first compound 0.3 µM
# [23] = second compound 31.6 µM, first compound 0.949 µM
# [24] = second compound 31.6 µM, first compound 3 µM
# [25] = second compound 100 µM, first compound 0.00949 µM
# [26] = second compound 100 µM, first compound 0.03 µM
# [27] = second compound 100 µM, first compound 0.0949 µM
# [28] = second compound 100 µM, first compound 0.3 µM
# [29] = second compound 100 µM, first compound 0.949 µM
# [30] = second compound 100 µM, first compound 3 µM
compound,measurement,setting,value
CNCc1ccc(-c2cc(-c3nc(-c4ccc(S(=O)(=O)C(C)C)cc4)cnc3N)on2)cc1 + Cn1nnc2c(C(N)=O)ncn2c1=O,IC50,second compound 1 µM,213 nM
same,IC50,second compound 3.16 µM,170 nM
same,IC50,second compound 10 µM,185 nM
same,IC50,second compound 31.6 µM,174 nM
same,IC50,second compound 100 µM,52.4 nM
same,"viability, T/C",[1],105%
same,"viability, T/C",[2],102%
same,"viability, T/C",[3],98.8%
same,"viability, T/C",[4],29.5%
same,"viability, T/C",[5],7.14%
same,"viability, T/C",[6],0.1%
same,"viability, T/C",[7],109%
same,"viability, T/C",[8],106%
same,outcome,[9],inactive
same,"viability, T/C",[10],23.8%
same,"viability, T/C",[11],7.34%
same,"viability, T/C",[12],0.12%
same,"viability, T/C",[13],99.1%
same,"viability, T/C",[14],105%
same,"viability, T/C",[15],89.7%
same,"viability, T/C",[16],20.8%
same,"viability, T/C",[17],5.82%
same,"viability, T/C",[18],0.11%
same,"viability, T/C",[19],115%
same,"viability, T/C",[20],82.3%
same,"viability, T/C",[21],75.5%
same,"viability, T/C",[22],17.5%
same,"viability, T/C",[23],37.5%
same,"viability, T/C",[24],0.15%
same,"viability, T/C",[25],93.7%
same,"viability, T/C",[26],69.8%
same,"viability, T/C",[27],29.5%
same,"viability, T/C",[28],9.36%
same,"viability, T/C",[29],29.7%
same,"viability, T/C",[30],0.18%
Cc1cc(C)c(CNC(=O)c2cc(-c3ccc(CN4CCOCC4)cc3)cc3c2cnn3C2CCCC2)c(=O)[nH]1 + Cn1nnc2c(C(N)=O)ncn2c1=O,IC50,second compound 1 µM,> 10000 nM
same,IC50,second compound 3.16 µM,> 10000 nM
same,IC50,second compound 10 µM,> 10000 nM
same,IC50,second compound 31.6 µM,> 10000 nM
same,IC50,second compound 100 µM,> 10000 nM
same,"viability, T/C","second compound 1 µM, first compound 0.0316 µM",98.6%
same,"viability, T/C","second compound 1 µM, first compound 0.1 µM",92.6%
same,"viability, T/C","second compound 1 µM, first compound 0.316 µM",93.5%
same,"viability, T/C","second compound 1 µM, first compound 1 µM",91.5%
same,"viability, T/C","second compound 1 µM, first compound 3.16 µM",88.7%
same,"viability, T/C","second compound 1 µM, first compound 10 µM",73.1%
same,"viability, T/C","second compound 3.16 µM, first compound 0.0316 µM",93.7%
same,"viability, T/C","second compound 3.16 µM, first compound 0.1 µM",101%
same,"viability, T/C","second compound 3.16 µM, first compound 0.316 µM",95.3%
same,"viability, T/C","second compound 3.16 µM, first compound 1 µM",99.2%
same,"viability, T/C","second compound 3.16 µM, first compound 3.16 µM",83.9%
same,"viability, T/C","second compound 3.16 µM, first compound 10 µM",79.1%
same,"viability, T/C","second compound 10 µM, first compound 0.0316 µM",97.7%
same,"viability, T/C","second compound 10 µM, first compound 0.1 µM",91.7%
same,"viability, T/C","second compound 10 µM, first compound 0.316 µM",98.8%
same,"viability, T/C","second compound 10 µM, first compound 1 µM",96.7%
same,"viability, T/C","second compound 10 µM, first compound 3.16 µM",81.5%
same,"viability, T/C","second compound 10 µM, first compound 10 µM",76.2%
same,"viability, T/C","second compound 31.6 µM, first compound 0.0316 µM",106%
same,"viability, T/C","second compound 31.6 µM, first compound 0.1 µM",103%
same,"viability, T/C","second compound 31.6 µM, first compound 0.316 µM",102%
same,"viability, T/C","second compound 31.6 µM, first compound 1 µM",100%
same,"viability, T/C","second compound 31.6 µM, first compound 3.16 µM",74.5%
same,"viability, T/C","second compound 31.6 µM, first compound 10 µM",62%
same,"viability, T/C","second compound 100 µM, first compound 0.0316 µM",91.8%
same,"viability, T/C","second compound 100 µM, first compound 0.1 µM",90.4%
same,"viability, T/C","second compound 100 µM, first compound 0.316 µM",79.8%
same,"viability, T/C","second compound 100 µM, first compound 1 µM",81.7%
same,"viability, T/C","second compound 100 µM, first compound 3.16 µM",70.7%
same,"viability, T/C","second compound 100 µM, first compound 10 µM",52.7%
Cc1sc2c(c1C)C(c1ccc(Cl)cc1)=NC(CC(=O)Nc1ccc(O)cc1)c1nnc(C)n1-2 (stereo not given) + Cn1nnc2c(C(N)=O)ncn2c1=O,IC50,second compound 1 µM,69 nM
same,IC50,second compound 3.16 µM,85.4 nM
same,IC50,second compound 10 µM,77.9 nM
same,IC50,second compound 31.6 µM,70.1 nM
same,IC50,second compound 100 µM,54.2 nM
same,"viability, T/C",[1],118%
same,"viability, T/C",[2],100%
same,"viability, T/C",[3],30.9%
same,"viability, T/C",[4],3.27%
same,"viability, T/C",[5],1.29%
same,"viability, T/C",[6],1.13%
same,"viability, T/C",[7],107%
same,"viability, T/C",[8],110%
same,"viability, T/C",[9],44.2%
same,"viability, T/C",[10],2.74%
same,"viability, T/C",[11],1.12%
same,"viability, T/C",[12],1.25%
same,"viability, T/C",[13],116%
same,"viability, T/C",[14],110%
same,"viability, T/C",[15],37.5%
same,"viability, T/C",[16],3.68%
same,"viability, T/C",[17],1.21%
same,"viability, T/C",[18],1.48%
same,"viability, T/C",[19],104%
same,"viability, T/C",[20],96.5%
same,"viability, T/C",[21],33.5%
same,"viability, T/C",[22],3.27%
same,"viability, T/C",[23],1.04%
same,"viability, T/C",[24],0.93%
same,"viability, T/C",[25],96.8%
same,"viability, T/C",[26],77.6%
same,"viability, T/C",[27],24%
same,"viability, T/C",[28],2.27%
same,"viability, T/C",[29],1.7%
same,"viability, T/C",[30],0.96%

# — PubChem BioAssay AID1845215 (Molecular Pharmacology Branch, DTP, NCI, 2023)
